Test results as given in patent publication US10428151B2, “Treatment of hematologic malignancies with an anti-CXCR4 antibody” (BRISTOL-MYERS SQUIBB COMPANY, priority 2011, dated 2019).
Where “and” joins values, the source holds several entries; their conditions need not be identical. Identical values can stand only once.

What was measured:
[1] = test system: Ramos cells; assay: Ramos lymphoma xenograft in SCID mice; assay type: in vivo
Description: When a mean and median tumor size of 80 mm^3 was reached, the mice were randomized (n=8) according to tumor volume. […] Tumors and body weights were measured twice weekly. Tumor volumes were measured in three dimensions (L×W×H/2) with a Fowler Electronic Digital Caliper (Model 62379-531; Fred V. Fowler Co., Newton, Mass.), and data was electronically recorded using Study Director software from StudyLog Systems, Inc. (South San Francisco, Calif.). Animals were checked daily for postural, grooming, and respiratory changes, as well as lethargy. Mice were euthanized when the tumors reached the 2000 mm^3 endpoint or appeared ulcerated.

[2] = test system: MM.1S cells; assay: MM.1S MM xenograft in SCID mice; assay type: in vivo
[3] = test system: Namalwa Burkitt's lymphoma cells; assay: Namalwa subcutaneous xenograft; assay type: in vivo, mouse
Description: Additional subcutaneous xenograft tumor models were tested for the ability of anti-CXCR4 antibodies to inhibit tumor growth, in experiments similar to those described above and in Example 9. […] Although the tumor cells in vivo were stainable by the mAb by immunohistochemistry, it is unclear at what stage of their tumor growth CXCR4 began to be expressed.

[4] = test system: Twist, Snail, Slug, E-Cadherin; conditions: Roccaro et al., 2012; cited from earlier work
[5] = test system: HL-60 cells; assay: HL-60 AML xenograft in SCID mice; assay type: in vivo; conditions: for median tumor growth inhibition: Day 27, 10 mg/kg/dose
Excerpt: To assess the antibody's efficacy in AML, two cytarabine-resistant mouse xenograft models, HL-60 and Nomo-1 were used. CXCR4 expression in each cell line was confirmed by FACS staining (FIG. 4A). SCID mice were subcutaneously implanted with 10 million HL-60 cells as described in Example 14.

[6] = test system: Ramos cells; assay: Ramos subcutaneous tumor cell model; assay type: in vivo, mouse; conditions: IP day 0 and 7; 15 mg/kg (Fab′ 10 mg/kg, also day 3 and 10)
Excerpt: In this example, the ability of the anti-CXCR4 human antibodies to inhibit proliferation of an established solid tumor in vivo was examined using a Ramos subcutaneous tumor cell model. In this assay, 10×10^6 Ramos cells/mouse were implanted into the flank region of each mouse and allowed to grow to a mean size of 40 mm^3, calculated by length×width×height/2 of the tumors. The mice then received an intraperitoneal (IP) injection of a first dose of antibody (designated as day 0 of treatment) and received a second IP dose of antibody on day 7. Mice treated with a Fab′ fragment antibody also received IP antibody doses on day 3 and day 10. […] Tumor volume and mouse body weight were measured at regular intervals (approximately 2-3 times/week) between day 0 and day 30 post dosing. The results of the experiment are presented in FIGS. 12A, 12B and 12C, which show mean tumor volume (FIG. 12A), median tumor volume (FIG. 12B) and median % body weight change (FIG. 12C). […] All treatments were well-tolerated as indicated by no significant body weight change. The differences in body weights between treatments were most likely due to the weights of the tumors.

[7] = test system: Nomo-1; assay: Nomo-1 AML xenograft; assay type: in vivo, SCID mice
Excerpt: In the Nomo-1 model (7.5 million cells implanted subcutaneously as in Example 14).

[8] = test system: primary MM cells; conditions: Roccaro et al., 2012; cited from earlier work
[9] = test system: MOLP-8 cells; assay: MOLP-8 MM xenograft in SCID mice; assay type: in vivo
Description: In all the experiments, the mice were injected intraperitoneally on Days 0 and 7 with an IgG4 isotype control and a PBS vehicle control.

[10] = test system: human peripheral blood mononuclear cells (PBMCs); assay: Flow cytometry binding to human PBMC subsets; conditions: 33 μg/ml; CD3+, CD20+, CD11b+, CD14+ subsets; vs isotype-matched control
Excerpt: Human PBMCs were isolated by standard methods and different cellular subsets were isolated by FACS. In particular, the following cellular subsets were isolated: (i) CD3^+, (ii) CD20^+; (iii) CD11b^+ and (iv) CD14^+.

[11] = test system: human umbilical vein endothelial cells (HuVEC); assay: HuVEC capillary tube formation; assay type: cell-based; conditions: HuVEC on MATRIGEL, 18 hours
Description: In this example, the ability of the anti-CXCR4 human antibodies to inhibit capillary tube formation by human umbilical vein endothelial cells (HuVEC) was examined […]® was diluted 1:1 with RPMI and plated onto the wells of a 96 well plate and allowed to polymerize for 30 minutes at 37° C. HuVEC (from Cambrex, cat. # CC-2519) at 80% confluence were trypsinized and resuspended at 1×10^6 cells per ml in RPMI with 0.5% FBS. Antibodies were well mixed with HuVEC at a final concentration of 3 mg/ml and allowed to incubate at room temperature for 30 minutes. An irrelevant antibody of the same isotype or media alone was used as a negative control. As a positive control of inhibition of tube formation, a mouse anti-human αvβ3 (CD51/CD61) antibody (R&D Systems, cat. # MAB3050) was used. HuVEC with or without antibodies were plated onto the […]®-coated wells and incubated at 37° C. for 18 hours.
The HuVEC incubated with media alone or with the isotype-matched control antibody formed capillary tubes resulting in the appearance of connected cells across the plate with 3-5 points of connection or branch points per cell. […] The cells appeared isolated and with few or no branch points.

[12] = test system: MM cells; conditions: compared to vehicle-treated mice; Roccaro et al., 2012; cited from earlier work
[13] = test system: parental JJN-3 cells; assay: JJN-3 MM xenograft in SCID mice; assay type: in vivo; conditions: Day 25; compared to vehicle control; MDX-1338 10 mg/kg/dose IP, bortezomib 0.8 mg/kg/dose IV
Excerpt: 5 million JJN-3 cells/mouse were implanted into SCID mice and the mice were randomized into groups of 8 when the tumor volume reached approximately 77 mm^3.

BMS-936564: fully human anti-CXCR4 monoclonal antibody; VH SEQ ID NO: 25, VL SEQ ID NO: 29
time the inhibition was maintained ([1]; 15 mg/kg/dose IP Days 0 and 7): 60 days
median growth inhibition ([1]; Day 21, 15 mg/kg/dose IP Days 0 and 7): 99%
% Tumor Growth Inhibition (Monotherapy) ([1]; Ramos): 80%
mean tumor growth inhibition ([2]; Day 25, compared to isotype control, MDX-1338 10 mg/kg/dose, lenalidomide 100 mg/kg): 60%
% Tumor Growth Inhibition (Monotherapy) ([2]; MM.1S): 49%
tumor growth inhibition ([2]; MM.1S): MDX-1338 = 60%
% Tumor Growth Inhibition (Monotherapy) [3]: 66%
tumor growth inhibition ([3]; 3 mg/kg): approximately 70%
effect on EMT-related proteins [4]: inhibits the EMT-related proteins Twist, Snail and Slug, and up-regulates E-Cadherin
median tumor growth inhibition ([5]; compared to isotype): 88%
median tumor growth inhibition ([5]; compared to vehicle): 83%
% Tumor Growth Inhibition (Monotherapy) ([5]; HL60): 60% and 82%
tumor cell growth (tumor volume) [6]: significantly inhibited tumor cell growth
% Tumor Growth Inhibition (Monotherapy) ([7]; Nomo-1): 88%
median tumor growth inhibition ([7]; day 34, 10 mg/kg/dose, compared to isotype or vehicle control): 88%
adhesion of primary MM cells to BMSCs [8]: inhibited by BMS936564 in a dose-dependent manner
delay of mean tumor growth ([9]; Day 25, 10 mg/kg/dose, compared to isotype antibody control, 10 mg/kg): 66% and 56%
tumor growth inhibition ([9]; MOLP8): MDX-1338 = 56%
% Tumor Growth Inhibition (Monotherapy) ([9]; MOLP-8): 66%
mice remained at end of study ([9]; day 42): 5 out of 8
binding to PBMC subsets [10]: capable of binding effectively to each of the four subsets
inhibition of capillary tube formation [11]: most effective in inhibiting capillary tube formation
MM cell dissemination to distant bone marrow niches [12]: less MM cell dissemination
tumor growth inhibition [13]: 52%
